Laboratory results reported in PMC11117333, “Design and synthesis of new dihydropyrimidine/sulphonamide hybrids as promising anti-inflammatory agents via dual mPGES-1/5-LOX inhibition” (Frontiers in Chemistry, 2024).
Where “and” joins values, the source holds several entries; their conditions need not be identical. Equal values may be shown once. Read-outs that look alike come from different tables or passages of the source. Marks after values point to notes of the source that are not given here. Each block holds one compound with its values, some of them ahead of it.

Columns and labels:
[1] = target: T1, mPGES-1 (Homo sapiens, UniProt O14684); settings: cited from earlier work; for IC50: ref Lauro et al., 2014
T1 construct: microsomal fractions from IL-1β-stimulated A549 cells served as the enzyme source; endogenous in cells; host or cells: A549 cells (IL-1β-stimulated), microsomal fraction
T1 sequence (O14684 1-152): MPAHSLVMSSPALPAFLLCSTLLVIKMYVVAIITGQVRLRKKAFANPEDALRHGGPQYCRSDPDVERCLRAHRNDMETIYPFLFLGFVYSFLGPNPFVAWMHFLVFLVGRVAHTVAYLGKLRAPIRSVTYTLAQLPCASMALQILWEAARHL

[2] = tested on: 5-LOX; settings: cited from earlier work
[3] = tested on: PGE2 production in A549 cells; parameters: method as in Kim et al., 2021; settings: ref Kim et al., 2021; cited from earlier work
[4] = target: T1, mPGES-1; assay: Cell-free mPGES-1 enzyme assay (microsomal fractions from IL-1β-stimulated A549 cells); type: biochemical; settings: cell-free, A549 microsomes
Protocol: A cell-free assay was conducted to evaluate the capacity of compounds […] to act as inhibitors of mPGES-1. In this assay, microsomal fractions from IL-1β-stimulated A549 cells served as the enzyme source ([Gürses et al., 2021]). During the initial screening phase, compounds 3a–j were examined for their effects on mPGES-1 at a concentration of 10 µM.
Microsomal measures of A549 cells expressing mPGES-1 were made in accordance with prior research findings ([Koeberle et al., 2008]). These cells were cultivated in Dulbecco’s Modified Eagle Medium and resuspended in a homogenization buffer. Subsequently, the microsomes were subjected to pre-incubation with either assessed compounds or a carrier solution containing 0.1 percent DMSO. The enzymatic process was halted by introducing FeCl3, citric acid, and 11-PGE2 as an internal standard. The quantities of Prostaglandin E2 (PGE2) were measured via RP-HPLC methodologies.

[5] = target: T2, soya bean 5-LOX (Glycine max, UniProt P08170); assay: 5-LOX enzyme assay (EIA kit, Cayman 760700); type: biochemical
T2 construct: purchased Cayman Chemical, Ann Arbor, Michigan, USA 760700
T2 sequence (P08170 1-839): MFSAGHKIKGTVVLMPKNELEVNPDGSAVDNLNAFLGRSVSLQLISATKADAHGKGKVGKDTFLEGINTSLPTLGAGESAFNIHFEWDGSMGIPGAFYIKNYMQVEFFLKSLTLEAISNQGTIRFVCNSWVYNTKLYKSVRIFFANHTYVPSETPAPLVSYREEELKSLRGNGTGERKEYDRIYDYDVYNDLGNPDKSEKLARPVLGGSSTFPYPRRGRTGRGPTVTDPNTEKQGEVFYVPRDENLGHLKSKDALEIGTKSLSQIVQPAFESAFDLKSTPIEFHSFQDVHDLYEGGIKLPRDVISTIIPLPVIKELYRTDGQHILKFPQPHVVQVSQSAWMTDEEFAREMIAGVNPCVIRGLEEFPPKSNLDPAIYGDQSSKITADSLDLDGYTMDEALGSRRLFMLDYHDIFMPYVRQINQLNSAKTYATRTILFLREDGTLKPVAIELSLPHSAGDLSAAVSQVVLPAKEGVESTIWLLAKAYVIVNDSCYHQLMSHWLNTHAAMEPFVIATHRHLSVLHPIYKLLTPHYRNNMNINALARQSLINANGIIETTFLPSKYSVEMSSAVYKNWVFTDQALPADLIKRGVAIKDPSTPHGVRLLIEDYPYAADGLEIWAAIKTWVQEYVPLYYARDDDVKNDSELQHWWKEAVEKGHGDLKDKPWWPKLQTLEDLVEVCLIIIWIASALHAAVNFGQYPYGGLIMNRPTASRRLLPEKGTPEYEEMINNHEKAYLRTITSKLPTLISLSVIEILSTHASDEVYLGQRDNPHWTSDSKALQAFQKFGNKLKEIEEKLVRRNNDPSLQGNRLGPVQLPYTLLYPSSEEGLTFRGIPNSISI
Source text: The capacity of compounds 3a–j to inhibit the enzyme 5-lipoxygenase (5-LOX) has been investigated ([Youssif et al., 2019]).
The study used an enzyme immune assay (EIA) kit (catalogue no. 760700, Cayman Chemical, Ann Arbor, Michigan, USA) to evaluate the inhibitory activity of target analogues against soya bean 5-LOX, ensuring compliance with manufacturer’s instructions and protocols, and calculating IC50 values ([Roschek et al., 2009]).

[6] = tested on: carrageen-induced paw edema; assay: Carrageenan-induced paw edema bioassay; type: in vivo, rat; parameters: concentration or dose not given beside the values
Protocol: The compounds’ efficacy was measured as edema inhibition percentage (EI %) after 1, 3, and 5 h of carrageenan injection vs. the conventional medicine Celecoxib.
Compounds 3c, 3e, 3h, and 3j were chosen for in vivo anti-inflammatory testing using the carrageen-induced paw edema bioassay method described by [Winter et al, (1962)]. The compounds’ efficacy was measured as edema inhibition percentage (EI%) after 1, 3, and 5 h of carrageenan injection vs. the conventional medicine Celecoxib.

[7] = tested on: PGE2; assay: Rat serum PGE2 after carrageenan (ELISA); type: in vivo; settings: 4 hours after subcutaneous carrageenan
Source text: Inhibiting PGE2 is a crucial strategy in anti-inflammatory therapy, playing a pivotal role in managing inflammation and its associated conditions.
(§1) In this study, specializing ELISA kits were used to determine the concentration of inflammatory cytokines PGE2, IL-6, and TNF-α. The study’s findings were examined in accordance with the instructions provided by the manufacturer, and measurements were taken based on the optical density at 450 nm.

[8] = tested on: TNF-α; assay: Rat serum TNF-α after carrageenan (ELISA); type: in vivo
Source text: as §1

[9] = tested on: IL-6; assay: Rat serum IL-6 after carrageenan (ELISA); type: in vivo
Source text: as §1

[10] = tested on: rat intestinal mucosa; assay: Gastric ulcerogenic activity (macroscopic inspection); type: in vivo; parameters: Score: Severity lesions: scale not given here; settings: oral 10 mg/kg
Protocol: The two most common side effects of long-term NSAID use are gastrointestinal erosion and ulcers ([Hendawy et al., 2021]). As a result, we were curious about the ulcerogenic potential of the most efficacious drugs, 3e and 3j, when given orally. The ulcerogenic effects of 3e and 3j were assessed by macroscopic inspection of rat intestinal mucosa after oral administration of 10 mg/kg of 3e, 3j, indomethacin, and celecoxib ([Manivannan and Chaturvedi, 2011]).
The ulcerogenic effects of compounds 3e and 3j were evaluated by macroscopic examination of rat intestinal mucosa after oral administration of 10 mg/kg of these compounds and indomethacin and celecoxib ([Manivannan and Chaturvedi, 2011]). See Appendix A for details.

SMILES: O=C(Cc1cn(-c2ccccc2)nc1-c1ccc(Cl)cc1)NS(=O)(=O)c1ccc(Cl)cc1 [VIII]
folds more potent than lonazolac calcium against mPGES-1 ([1]; ref Elkady et al., 2012): 19 fold
IC50 ([2]; ref Elkady et al., 2012): 2900 nM
folds more potent than lonazolac calcium against 5-LOX ([2]; ref Elkady et al., 2012): 20 fold

SMILES: CCOC(=O)CCSC1=NC(c2ccccc2)C=C(c2ccccc2)N1 (stereo not shown) [IV]
5-LOX % inhibition at 100 μg/mL ([2]; 100 μg/mL, ref Lokwani et al., 2015): 51.84%
IC50 ([2]; ref Lokwani et al., 2015): 19100 nM

SMILES: COC(=O)C1=C(C)NC(Nc2cc(O)cc(Cl)c2)=NC1c1ccc(Cl)cc1 (stereo not shown) [V]
5-LOX % inhibition ([2]; 2.46 µM concentration, ref Venugopala et al., 2015): 81.19%

SMILES: O=C(Nc1ccc(OCCCCc2ccccc2)cc1)N(Cc1ccccc1)S(=O)(=O)c1ccc(Cl)cc1 [VI]
IC50 [3]: 240 nM
fold more active than the standard inhibitor MK-886 (PGE2 production) [3]: about 9 fold

remaining activity at 10 µM ([4]; 10 µM compound, read-out: mPGES-1 RA (%) 10 µM (residual activity percentage)): 28.6%
IC50 [4]: 970 nM
IC50 [5]: 2070 nM
melting point: 272 to 274 °C
SMILES: COc1ccc(C2NC(=S)NC(C)=C2C(=O)Nc2ccc(S(N)(=O)=O)cc2)cc1OC (stereo not shown) [Compound 3e, 4-[3,4-dimethoxyphenyl]-6-methyl-N-[4-sulfamoylphenyl]-2-thioxo-1,2,3,4-tetrahydropyrimidine-5-carboxamide]
% Of edema inhibition 1 h ([6]; 1 h after carrageenan injection): 35%
% Of edema inhibition 3 h ([6]; 3 h after carrageenan injection): 57%
% Of edema inhibition 5 h ([6]; 5 h after carrageenan injection): 65%
PGE2 %inhibition [7]: 72.70% and 73%
PGE2 serum concentration ([7]; mean ± SE): 83.50 ± 2.30 ^b pg/mL
TNFα %inhibition [8]: 67%
TNFα serum concentration ([8]; mean ± SE): 78.10 ± 2.20 ^b pg/mL
IL-6 %inhibition [9]: 75%
IL-6 serum concentration ([9]; mean ± SE): 94.10 ± 2.75 ^b pg/mL
Score: No. of gastric ulcers [10]: 0.60 ± 0.01
Score: Severity lesions [10]: 1.00 ± 0.01
Ulceration in the isolated rat stomach (in words) [10]: mild hyperemia but no widespread ulceration

SMILES: COc1ccc2c(c1)c(CC(=O)NS(=O)(=O)c1ccc(C)cc1)c(C)n2C(=O)c1ccc(Cl)cc1 [VII]
IC50 ([2]; ref Elkady et al., 2012): 2900 nM

SMILES: CC1=C(C(=O)OCc2ccccc2)C(c2ccc(-c3cccc(C(F)(F)F)c3)o2)NC(=O)N1CCC(=O)O (stereo not shown) [III]
fold higher activity than compound I (mPGES-1) ([1]; ref Terracciano et al., 2015): 10 fold

SMILES: CCOC(=O)C1=C(C(=O)c2ccc(OC)cc2)C(c2ccc(-c3cccc(C(F)(F)F)c3)o2)NC(=O)N1 (stereo not shown) [I]
IC50 [1]: 4160 ± 470 nM

SMILES: CCOC(=O)C1=C(C(=O)c2ccc(OC)cc2)C(c2ccc(-c3cccc(C(F)(F)F)c3)o2)NC(=O)N1C (stereo not shown) [II]
IC50 [1]: 7560 ± 940 nM
